Measurements as given in US20160060660A1, “BIOTECHNOLOGICAL PRODUCTION OF ITACONIC ACID” (UNIVERSITÉ DU LUXEMBOURG, priority 2013, published 2016).
Where two headings read alike, the source gives them in different places.

What was measured:
murine IRG1 = target: T1, murine IRG1 (Mus musculus, UniProt P54987); experiment: CAD activity assay, Michaelis-Menten kinetics of purified murine IRG1; assay type: biochemical; conditions: substrate cis-aconitic acid 0 to 1 mmol/l, pH=6.2, 37° C., read-out: Michaelis-Menten constant KM for itaconic acid formation
T1 construct: made in house
T1 sequence (P54987 1-488): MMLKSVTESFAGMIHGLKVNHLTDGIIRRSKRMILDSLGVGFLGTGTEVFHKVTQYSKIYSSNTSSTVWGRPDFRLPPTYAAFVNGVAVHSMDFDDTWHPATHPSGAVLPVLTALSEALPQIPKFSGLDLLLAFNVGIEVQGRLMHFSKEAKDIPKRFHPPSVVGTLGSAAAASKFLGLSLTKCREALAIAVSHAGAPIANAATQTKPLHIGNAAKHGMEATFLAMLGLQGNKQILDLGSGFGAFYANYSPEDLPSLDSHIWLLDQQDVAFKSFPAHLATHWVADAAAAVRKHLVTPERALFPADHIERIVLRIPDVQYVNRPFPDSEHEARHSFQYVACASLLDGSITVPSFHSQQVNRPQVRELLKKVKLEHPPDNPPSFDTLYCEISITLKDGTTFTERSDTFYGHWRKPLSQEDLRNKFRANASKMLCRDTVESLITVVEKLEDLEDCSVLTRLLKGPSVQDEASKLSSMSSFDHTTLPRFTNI
Procedure: (§1) The purified proteins were then used for enzyme activity assays. Cis-aconitic acid was used as a substrate at concentrations in the range of 0 to 1 mmol*I^−1 at pH=6.2 and 37° C. To determine the time dependent itaconic acid production, itaconic acid level was measured after 5 and 15 min of incubation. To determine the correlation between itaconic acid production and IRG1 activity, the substrate concentrations were plotted against the rate of itaconic acid formation.
(§2) Proteins produced in HEK293FT cells, which have been transfected with human and mouse pCMV6-Irg1 overexpression plasmid as well as pCMV6-Entry plasmid, were purified, separated on SDS-Page, detected with western blotting or silver staining and characterized with in-vitro enzyme assays.
(§3) Enzyme solutions were used from F1 as well as F2 and cis-aconitic acid and citric acid were used as substrates. Sampling took place 5 min and 15 min after enzyme supplementation. 95 μl enzyme solution were transferred into sampling tubes containing 230 μl methanol at −20° C. and centrifuged for 10 min at 4° C. with 16,000×g. 290 μl were dried in glass vials under vacuum and analyzed with GC-MS. […] The kinetic parameter Km of the purified enzymes was determined with Michaelis-Menten model using the statistical tool R (R Development Core Team, 2011).

[1] = tested on: human PBMCs-derived macrophages; experiment: NO donor treatment of human PBMCs-derived macrophages, itaconic acid levels; assay type: cell-based; conditions: 1, 10, 100 μM, with or without LPS, 12 h
Procedure: Human PBMCs were seeded and differentiated into macrophages as described above. Diethylamine NONOate (DEA NONOate, Sigma), an intracellular NO donor, was added at different concentrations (1, 10, 100 μM) alone or together with LPS (100 μg/ml). After 12 h of incubation, the metabolites were extracted.
After 12 h, 180 μl of medium was harvested and combined with 20 μl of 1 mM NaOH on ice to stop the dissociation reaction. Levels of nitrite formed from the reaction with H2O were determined using the Griess assay. In brief, 50 μl of medium sample or nitrite IC standard (Sigma) was pipetted in triplicate in a 96-well plate. To each well, equal volumes of 1× Griess Reagent (Sigma) were added. Absorbance was read at 540 nm and nitrite concentrations were calculated.

human IRG1 = target: T2, human IRG1 (Homo sapiens, UniProt A6NK06); experiment: CAD activity assay, Michaelis-Menten kinetics of purified human IRG1; assay type: biochemical; conditions: substrate cis-aconitic acid 0 to 1 mmol/l, pH=6.2, 37° C., read-out: Michaelis-Menten constant KM for itaconic acid formation
T2 construct: made in house
T2 sequence (A6NK06 1-481): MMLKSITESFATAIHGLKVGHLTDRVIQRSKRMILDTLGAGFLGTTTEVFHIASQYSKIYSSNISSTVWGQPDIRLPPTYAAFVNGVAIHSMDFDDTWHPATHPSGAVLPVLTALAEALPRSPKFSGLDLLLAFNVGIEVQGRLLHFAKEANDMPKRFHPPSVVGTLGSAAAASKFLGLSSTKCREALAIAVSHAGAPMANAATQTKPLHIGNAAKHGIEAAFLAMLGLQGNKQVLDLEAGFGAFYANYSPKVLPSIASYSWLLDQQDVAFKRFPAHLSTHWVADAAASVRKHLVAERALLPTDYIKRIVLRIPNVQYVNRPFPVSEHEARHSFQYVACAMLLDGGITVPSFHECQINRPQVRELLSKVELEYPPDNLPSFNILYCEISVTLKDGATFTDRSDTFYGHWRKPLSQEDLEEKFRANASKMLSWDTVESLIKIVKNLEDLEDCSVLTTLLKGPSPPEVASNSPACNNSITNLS
Procedure: as §1, §2, §3

[2] = tested on: Salmonella enterica serovar Typhimurium
Procedure: Salmonella enterica serovar Typhimurium bacteria were grown in liquid medium as detailed in the text in the presence different concentrations of itaconic acid or cis-aconitate (5, 10, 50, 100 mM). Growth was measured as optical density (OD) at indicated time points.

[3] = tested on: Mycobacterium tuberculosis H37Rv; assay type: cell-based
Irg1 protein = target: T3, Irg1 protein (Mus musculus, UniProt P54987); experiment: Cis-aconitate decarboxylase activity of extracts and purified fractions from HEK293T cells transfected with pCMV6-Entry-Irg1; assay type: biochemical; conditions: 1 mM cis-aconitate, 30° C., 40 min
T3 construct: made in house; host or cells: HEK293T
T3 sequence (P54987 1-488): T1 sequence (P54987 1-488)
Procedure: Protein concentration was measured by the Bradford assay using Bradford reagent (Bio-Rad). […] Reactions were stopped by addition of 900 μl methanol/water (8:1) mix. […] (Labconco).

Compound: IRG1 mouse: Flag-tagged mouse immune-responsive gene 1 protein (SEQ ID NO 4) purified from transfected HEK293T cells
- Km (murine IRG1): 70 µM

Compound: CCN(CC)/[N+]([O-])=N/O.CCNCC [diethylamine NONOate, Diethylamine NONOate]
- effect on intracellular itaconic acid levels [1]: could not detect any effect

Compound: IRG1 human: Flag-tagged human immune-responsive gene 1 protein (SEQ ID NO 2) purified from transfected HEK293T cells
- Km (human IRG1): 30 µM

Compound: O=C(O)/C=C(/CC(=O)O)C(=O)O [cis-aconitate, cis-aconitic acid, reference compound]
- effect on S. enterica growth ([2]; medium supplemented with cis-aconitate, acetate): more pronounced growth
- effect on M. tuberculosis growth ([3]; medium supplemented with cis-aconitate, acetate or glycerol): more pronounced growth

Compound: FLAG-tagged Irg1 protein: FLAG-tagged Irg1 protein from HEK293T cells transfected with pCMV6-Entry-Irg1; presumably murine Irg1
- cis-aconitate decarboxylase activity (Irg1 protein): catalyzed the conversion of cis-aconitate to itaconic acid

Compound: C=C(CC(=O)O)C(=O)O [itaconic acid]
- effect on S. enterica growth ([2]; glucose as carbon source): does not affect the bacterial growth
- concentration at which significant effects on S. enterica growth were observed ([2]; liquid medium with acetate as unique carbon source): 10 mM
- concentration at which growth of M. tuberculosis was completely inhibited [3]: 25 to 50 mM
- effect on M. tuberculosis growth ([3]; glycerol as carbon source): does not affect the bacterial growth
- concentration inhibiting M. tuberculosis growth ([3]; glycerol with 0.1 μM propionate): 5 to 10 mM
